According to ChEMBL document CHEMBL5244275, “Geminal Diheteroatomic Motifs: Some Applications of Acetals, Ketals, and Their Sulfur and Nitrogen Homologues in Medicinal Chemistry and Drug Design” (J Med Chem, 2021):
≈ marks a conversion by molar mass, not a printed value.

Experiments:
[1] = system: Mus musculus; experiment: Ex vivo inhibition of FAAH in ip dosed mouse brain assessed as drug concentration required to inhibit [3H]ethanolamine degradation; type: functional; conditions: read-out: ID50 (the source's name)
[2] = system: Mus musculus; experiment: Ex vivo inhibition of FAAH in po dosed mouse brain assessed as drug concentration required to inhibit [3H]ethanolamine degradation; type: functional; conditions: read-out: ID50 (the source's name)
[3] = Bioavailability in dog at 1 mg/kg, iv measured after 30 mins by LC-MS/MS analysis; type: ADME, organism-based, Canis lupus familiaris; conditions: in vivo
[4] = Half-life in human; type: ADME
[5] = Solubility of the compound at pH 7 incubated for 12 hrs by UPLC analysis; type: physicochemical; conditions: buffer, pH 7, 12 h
[6] = Bioavailability in rat at 0.5 mg/kg, iv measured after 30 mins by LC-MS/MS analysis; type: ADME, organism-based; conditions: in vivo
[7] = system: Human immunodeficiency virus 1; experiment: Selectivity index, ratio of EC50 for antiviral activity against HIV-1 G140S/Q148R mutant to EC50 for antiviral activity against wild-type HIV-1; type: functional
[8] = Unbound fraction in human plasma; type: ADME, cell-free
[9] = system: Human immunodeficiency virus 1; experiment: Antiviral activity against HIV1 infected in human MT4 cells assessed as inhibition of viral replication; type: functional, organism-based; conditions: Human immunodeficiency virus 1, MT4
[10] = molecular target: PXR (NR1I2) (Homo sapiens, UniProt O75469); experiment: Activation of PXR (unknown origin) in human DPX2 cells assessed as maximal efficacy at 15 uM relative to control; type: cell-based
PXR (NR1I2), sequence (O75469 whole entry): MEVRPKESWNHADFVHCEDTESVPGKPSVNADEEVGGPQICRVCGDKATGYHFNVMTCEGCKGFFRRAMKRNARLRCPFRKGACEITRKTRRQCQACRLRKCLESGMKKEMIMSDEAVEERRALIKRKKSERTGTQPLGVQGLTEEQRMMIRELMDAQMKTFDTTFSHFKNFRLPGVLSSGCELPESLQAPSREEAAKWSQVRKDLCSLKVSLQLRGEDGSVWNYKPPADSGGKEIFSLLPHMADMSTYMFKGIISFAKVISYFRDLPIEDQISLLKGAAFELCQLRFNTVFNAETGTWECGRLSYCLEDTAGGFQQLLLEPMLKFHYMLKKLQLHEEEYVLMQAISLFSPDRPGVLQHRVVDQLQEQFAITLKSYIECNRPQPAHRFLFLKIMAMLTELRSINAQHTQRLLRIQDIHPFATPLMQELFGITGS

[11] = Stability of the compound assessed as compound hydrolysis by measuring relative rate constant by dilatometric method; type: physicochemical
[12] = Inhibition of Acinetobacter baumannii beta-lactamase OXA-235
[13] = Inhibition of Acinetobacter baumannii beta-lactamase OXA-143
[14] = Inhibition of Acinetobacter baumannii beta-lactamase OXA-24
[15] = Stability of the compound assessed as compound hydrolysis by measuring rate constant; type: physicochemical
[16] = Stability of the compound at pH 7.4 aqueous phosphate buffer assessed as half-life; type: physicochemical
[17] = Oral bioavailability in human; type: ADME, organism-based; conditions: in vivo
[18] = system: Mus musculus; experiment: Anticonvulsant activity in MES induced mouse model of seizure at 10 mg/kg, po measured after 4 hrs relative to control; type: functional
[19] = Half-life in human plasma; type: ADME
[20] = Drug excretion in human urine assessed as unchanged drug excreted; type: ADME; conditions: read-out: Drug excretion
[21] = Solubility of the compound at pH 7.4; type: physicochemical; conditions: buffer
[22] = Stability of the compound in 0.01 N HCL at pH 2.0 assessed as half-life; type: physicochemical
[23] = Stability of the compound at pH 2 assessed as half-life; type: physicochemical; conditions: buffer
[24] = Oral bioavailability in mouse; type: ADME, organism-based; conditions: in vivo
[25] = Half-life in iv dosed rat plasma; type: ADME, organism-based
[26] = Half-life in po dosed rat; type: ADME, organism-based; conditions: in vivo
[27] = system: Plasmodium falciparum; experiment: Antiplasmodial activity against Plasmodium falciparum W2 assessed as inhibition of parasite growth; type: functional, organism-based
[28] = Inhibition of Calcium channel (unknown origin); design: species or system Homo sapiens
[29] = Dissociation constant, pKa of the compound; type: physicochemical
[30] = system: Cavia porcellus; experiment: Antiinflammatory activity in po dosed substance P-induced guinea pig model of dermal inflammation; type: functional; conditions: read-out: ID50 (the source's name)
[31] = Antiplasmodial activity against Plasmodium berghei NK 173 infected in ICR (CD-1) mouse assessed as inhibition of parasite growth administered intraperitoneally for four days; conditions: NK 173, 96 h
[32] = Antiplatelet activity in human platelet rich plasma assessed as platelet aggregation; type: functional, cell-free
[33] = molecular target: Hepatitis C virus serine protease, NS3/NS4A (Hepatitis C virus, UniProt A3EZI9+D2K2A8); experiment: Inhibition of Hepatitis C virus NS4A-NS3 protease by continuous assay; type: protein-complex assay, Hepacivirus hominis
Hepatitis C virus serine protease, NS3/NS4A, sequence (D2K2A8 whole entry): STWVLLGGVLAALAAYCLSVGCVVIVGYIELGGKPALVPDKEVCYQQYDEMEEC
Hepatitis C virus serine protease, NS3/NS4A, sequence (A3EZI9 whole entry): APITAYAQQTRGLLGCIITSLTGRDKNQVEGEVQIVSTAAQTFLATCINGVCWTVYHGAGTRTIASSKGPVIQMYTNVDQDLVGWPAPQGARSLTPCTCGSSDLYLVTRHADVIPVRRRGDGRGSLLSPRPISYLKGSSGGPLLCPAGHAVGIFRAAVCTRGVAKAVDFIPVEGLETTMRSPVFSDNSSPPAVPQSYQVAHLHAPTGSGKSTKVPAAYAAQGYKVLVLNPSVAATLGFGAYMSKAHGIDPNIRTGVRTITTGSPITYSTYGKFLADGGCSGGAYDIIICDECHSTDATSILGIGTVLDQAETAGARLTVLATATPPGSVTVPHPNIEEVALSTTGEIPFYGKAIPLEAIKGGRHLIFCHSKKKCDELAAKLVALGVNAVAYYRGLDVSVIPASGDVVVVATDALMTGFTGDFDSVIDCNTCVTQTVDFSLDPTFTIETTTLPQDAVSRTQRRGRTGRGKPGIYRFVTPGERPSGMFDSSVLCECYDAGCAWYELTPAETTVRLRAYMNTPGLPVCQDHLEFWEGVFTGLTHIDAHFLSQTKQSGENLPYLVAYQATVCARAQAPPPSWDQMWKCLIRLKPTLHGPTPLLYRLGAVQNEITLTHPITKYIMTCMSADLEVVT

[34] = Drug recovery in mouse urine; type: ADME; conditions: pooled result: one value given for 8 cell lines, strains, targets or settings, read-out: Drug recovery
[35] = molecular target: Polymerase acidic protein (Influenza A virus (A/Puerto Rico/8/1934(H1N1)), UniProt P03433); experiment: Inhibition of Influenza A virus CEN
[36] = molecular target: Sterol O-acyltransferase 1 (Rattus norvegicus, UniProt O70536); experiment: Inhibition of ACAT in rat
Sterol O-acyltransferase 1, sequence (O70536 whole entry): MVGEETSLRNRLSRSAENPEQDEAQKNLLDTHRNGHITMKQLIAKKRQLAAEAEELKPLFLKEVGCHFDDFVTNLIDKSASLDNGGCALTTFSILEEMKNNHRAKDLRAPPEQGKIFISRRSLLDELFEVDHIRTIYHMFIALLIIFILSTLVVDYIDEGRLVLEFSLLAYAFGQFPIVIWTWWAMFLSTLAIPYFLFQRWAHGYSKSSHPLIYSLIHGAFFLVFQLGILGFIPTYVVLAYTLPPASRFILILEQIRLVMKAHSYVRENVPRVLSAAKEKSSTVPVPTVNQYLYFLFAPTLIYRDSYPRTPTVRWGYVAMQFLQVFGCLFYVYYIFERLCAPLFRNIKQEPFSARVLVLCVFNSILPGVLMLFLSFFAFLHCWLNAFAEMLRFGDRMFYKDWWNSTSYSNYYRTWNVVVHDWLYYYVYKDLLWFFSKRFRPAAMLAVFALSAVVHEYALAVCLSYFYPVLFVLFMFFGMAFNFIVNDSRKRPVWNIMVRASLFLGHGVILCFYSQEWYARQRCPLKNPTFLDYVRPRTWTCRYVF

[37] = Drug degradation in citrate buffer at pH 4 measured after 18 hrs; type: physicochemical; conditions: read-out: Drug degradation
[38] = Drug degradation in citrate buffer at pH 8.5 measured after 18 hrs; type: physicochemical; conditions: read-out: Drug degradation
[39] = system: Human immunodeficiency virus 1; experiment: Antiviral activity against HIV-1 RF; type: functional, organism-based; conditions: Human immunodeficiency virus 1, RF
[40] = system: Human immunodeficiency virus 1; experiment: microbe, parasite or virus in culture; conditions: Human immunodeficiency virus 1, LAV
[41] = system: CCRF-CEM; experiment: Anticancer activity against human CCRF-CEM cells; type: functional, cell-based
[42] = Oral bioavailability in rat; type: ADME, organism-based; conditions: in vivo
[43] = system: Mus musculus; experiment: Antiinflammatory activity in LPS-induced Balb/c mouse model assessed as reduction in TNF-alpha release administered orally for 30 mins followed by LPS-stimulation and measured after 90 mins by ELISA analysis; type: functional; conditions: 2 h, route po, time 120 min
[44] = molecular target: MAP kinase p38 (Homo sapiens, UniProt O15264+Q15759+Q16539+P53778); experiment: Inhibition of p38-MAPK (unknown origin); type: protein assay

With `COc1ccc2c(cccc2[C@H]2CO[C@H](CCCNC(=O)OCC(N)=O)OC2)c1` the ED50 [1] was 0.1 mg/kg and the ED50 [2] was 0.17 mg/kg.
For `C[C@@H]1CCO[C@H]2Cn3cc(C(=O)NCc4ccc(F)cc4F)c(=O)c(O)c3C(=O)N12` [DOLUTEGRAVIR], the bioavailability [3] was 17%, the half-life [4] was 840 min and the solubility [5] was 53 µg/mL (≈ 0.126 mM). For the same compound, the bioavailability [6] was 52%, the “Ratio EC50” value [7] was 4.8 and the Fu [8] was 0.7%. For the same compound, the EC50 [9] was 1.7 nM and the Emax at 15 µM [10] was 51%.
In the case of `C1COCO1`, the K [11] is reported as 1.
Compound `C[C@]1(Cn2ccnn2)[C@H](C(=O)O)N2C(=O)C[C@H]2S1(=O)=O` [TAZOBACTAM] has an IC50 [12] of 4.88 µM, an IC50 [13] of 5.9 µM and an IC50 [14] of 27.9 µM.
For `FC1(F)[C@H]2O[C@@H]1[C@H](COCc1ccccc1)[C@@H](COCc1ccccc1)O2`, the K [15] was 2.4 10^-3/M/s and the half-life [16] was greater than 30 days.
`CC1(C)O[C@@H]2[C@@H](CO[C@@]3(COS(N)(=O)=O)OC(C)(C)O[C@@H]23)O1` [TOPIRAMATE] showed a bioavailability [17] of 80%, an Activity [18] of 80% and a half-life [19] of 1260 min. For the same compound, the dose excreted [20] was 70%.
For `Nc1nc(O)c2ncn(COC(CO)CO)c2n1` [GANCICLOVIR], the solubility [21] was 2000 µg/mL (≈ 7.84 mM).
Compound `C[C@H]1[C@@H](O)O[C@@H]2O[C@@]3(C)CC[C@H]4[C@H](C)CC[C@@H]1[C@@]24OO3` [ARTENIMOL] has a half-life [22] of 1020 min, a half-life [23] of 0.708 days and a bioavailability [24] of 1.4%. For the same compound, the half-life [25] was 23 min, the half-life [26] was 30 min and the IC50 [27] was 0.45 nM.
In the case of `O=c1[nH]nc(CN2CCC[C@H](OCc3cc(C(F)(F)F)cc(C(F)(F)F)c3)[C@@H]2c2ccccc2)[nH]1`, the IC50 [28] is reported as 13 µM, the pKa [29] is reported as 5.3 and the ED50 [30] is reported as 0.037 mg/kg.
Work on `CO[C@@]1(C(F)(F)F)O[C@@H]2O[C@@]3(C)CC[C@H]4[C@H](C)CC[C@@H]([C@H]1C)[C@@]24OO3` yielded an ED50 [31] of 3.4 µmol/kg and a half-life [23] of 27.5 days.
With `CCCCC[C@H](O)/C=C/[C@H]1O[C@@H]2O[C@H]([C@@H]1C/C=C\CCCC(=O)O)C2(F)F` the half-life [16] was 322 days and the EC50 [32] was 36 nM.
Compound `CCC[C@H](NC(=O)[C@@H]1[C@H]2O[C@H]3CCCOc4cccc(c4)CC(=O)N[C@@H](C4CCCCC4)CN1C[C@@H]2O3)C(=O)C(=O)NCC(=O)N[C@H](C(=O)OC(C)(C)C)c1ccccc1` has a Ki [33] of 38 nM.
With `CC1(C)O[C@@H]2[C@@H](CC[C@@]3(COS(N)(=O)=O)OC(C)(C)O[C@@H]23)O1` the dose excreted [34] was 89%.
`O=C1c2c(O)c(=O)ccn2N([C@@H]2c3ccccc3SCc3c2ccc(F)c3F)[C@@H]2COCCN12` [BALOXAVIR] gave a half-life [4] of 4740 min and an IC50 [35] of 2.5 nM.
Compound `Cc1cc(C)n(CCCC[C@H]2CO[C@@H](c3nc(-c4ccccc4)c(-c4ccccc4)[nH]3)OC2)n1` has an IC50 [36] of 75 nM.
Compound `CC(=O)NC[C@H]1CN(c2ccc(N3CCOCC3)c(F)c2)C(=O)O1` [LINEZOLID] has a degraded at 18 h [37] of less than 1%, a pKa [29] of less than 6 and a degraded at 18 h [38] of 40%.
For `COC(=O)OCOc1c2n(ccc1=O)N([C@@H]1c3ccccc3SCc3c1ccc(F)c3F)[C@@H]1COCCN1C2=O` [BALOXAVIR MARBOXIL], the IC50 [35] was 530 nM.
Work on `Nc1ccn([C@@H]2CS[C@H](CO)O2)c(=O)n1` [LAMIVUDINE] yielded an IC50 [39] of 870 nM and an EC50 [40] of 2000 nM.
Compound `Nc1nc2c(ncn2COCCO)c(=O)[nH]1` [ACYCLOVIR] has a solubility [21] of 2500 µg/mL (≈ 11.1 mM).
Compound `Nc1nc(Cl)nc2c1ncn2[C@@H]1O[C@H](CO)[C@@H](O)[C@@H]1F` [CLOFARABINE] has a bioavailability [17] of 57% and an IC50 [41] of 60 nM.
In the case of `C[C@]1(NC(=O)c2ccccc2)CO[C@H](c2nc(-c3ccncc3)c(-c3ccc(F)cc3)[nH]2)OC1`, the bioavailability [42] is reported as 64%, the ED50 [43] is reported as 10 mg/kg and the IC50 [44] is reported as 44 nM.
